Where a SMILES comes first, the peptide text is derived from it.
Key:
Caki-1 = type: cell-based, human; conditions: Caki-1; for Anti-cancer activity (% relative to wild-type peptide) / Decrease in cell survival rate (% relative to wild-type peptide): wild-type peptide = 100%
Description: A total of 3×10^3 cells were inoculated per well on a 96 well plate and cultured in a medium containing 10% FBS for 24 hours, and incubated with 100 μl of a peptide having a gradual increase in concentration at 37° C. for 48 to 72 hours. The survival rate of the cells was measured by using WST-8 solution (Cell Count Reagent SF; Nacalai Tesque, Inc.).
(§1) Respective variant peptides were subjected to cell viability assay. Specifically, Caki-1 (American Type Culture Collection (Manassas, Va.) was inoculated in a total amount of 3×10^3 cells per well on a 96 well plate (Nunc™); the cells were cultured in a medium (DMEM (Tesque, Inc.) containing 10% FBS (fetal bovine serum; Biowest)) for 24 hours and incubated with 100 μl of a peptide having a gradual increase in concentration at 37° C. for 48 to 72 hours. The cell survival rate was measured by using WST-8 solution (Cell Count Reagent SF; Nacalai Tesque, Inc.) and compared with that of the wild-type Antp-TPR peptide.
as §1, with “medium” for “medium (DMEM (Tesque, Inc.)”, “FBS” for “FBS (fetal bovine serum; Biowest))”

cancer cells = assay: Cell viability assay, summary statements on cancer cells; type: cell-based; conditions: single mutation in TPR or Antp region of Antp-TPR

SMILES | Anti-cancer activity (% relative to wild-type peptide) (Caki-1) [%] | Decrease in cell survival rate (% relative to wild-type peptide) (Caki-1) [%] | effect compared with the wild-type protein (summary of mutations) (cancer cells) | killing effect compared with the wild-type peptide (Caki-1)
CC[C@H](C)[C@H](NC(=O)[C@H](CCCNC(=N)N)NC(=O)[C@H](C)NC(=O)[C@H](Cc1ccc(O)cc1)NC(=O)[C@H](C)NC(=O)[C@H](CCCCN)NC(=O)[C@H](CCCCN)NC(=O)[C@H](CCCCN)NC(=O)[C@H](Cc1ccc(O)cc1)NC(=O)[C@H](CCCCN)NC(=O)[C@H](CCSC)NC(=O)[C@H](CCCNC(=N)N)NC(=O)[C@H](CCCNC(=N)N)NC(=O)[C@H](CC(N)=O)NC(=O)[C@H](CCC(N)=O)NC(=O)[C@H](Cc1ccccc1)NC(=O)[C@H](Cc1c[nH]c2ccccc12)NC(=O)[C@@H](NC(=O)[C@H](CCCCN)NC(=O)[C@@H](NC(=O)[C@H](CCC(N)=O)NC(=O)[C@@H](N)CCCNC(=N)N)[C@@H](C)CC)[C@@H](C)CC)C(=O)NCC(=O)N[C@@H](CC(N)=O)C(=O)N[C@@H](CO)C(=O)N[C@@H](Cc1ccc(O)cc1)C(=O)N[C@@H](Cc1ccccc1)C(=O)N[C@@H](CCCCN)C(=O)O [Antp W14Y-TPR] (H-RQIKIWFQNRRMKYKKKAYARIGNSYFK-OH; N-terminus and C-terminus assumed) | 83.36 | 41.80 | effect similar to that of the wild-type protein | –
CC[C@H](C)[C@H](NC(=O)[C@H](CCCNC(=N)N)NC(=O)[C@H](C)NC(=O)[C@H](Cc1ccc(O)cc1)NC(=O)[C@H](C)NC(=O)[C@H](CCCCN)NC(=O)[C@H](CCCNC(=N)N)NC(=O)[C@H](CCCCN)NC(=O)[C@H](Cc1c[nH]c2ccccc12)NC(=O)[C@H](CCCCN)NC(=O)[C@H](CCSC)NC(=O)[C@H](CCCNC(=N)N)NC(=O)[C@H](CCCNC(=N)N)NC(=O)[C@H](CC(N)=O)NC(=O)[C@H](CCC(N)=O)NC(=O)[C@H](Cc1ccccc1)NC(=O)[C@H](Cc1c[nH]c2ccccc12)NC(=O)[C@@H](NC(=O)[C@H](CCCCN)NC(=O)[C@@H](NC(=O)[C@H](CCC(N)=O)NC(=O)[C@@H](N)CCCNC(=N)N)[C@@H](C)CC)[C@@H](C)CC)C(=O)NCC(=O)N[C@@H](CC(N)=O)C(=O)N[C@@H](CO)C(=O)N[C@@H](Cc1ccc(O)cc1)C(=O)N[C@@H](Cc1ccccc1)C(=O)N[C@@H](CCCCN)C(=O)O [Antp K16R-TPR] (H-RQIKIWFQNRRMKWKRKAYARIGNSYFK-OH; N-terminus and C-terminus assumed) | 110.26 | 709.01 | effect higher than the wild-type protein | stronger than that of the wild-type peptide
CC[C@H](C)[C@H](NC(=O)[C@H](CCCNC(=N)N)NC(=O)[C@H](C)NC(=O)[C@H](Cc1ccc(O)cc1)NC(=O)[C@H](C)NC(=O)[C@H](CCCCN)NC(=O)[C@H](CCCCN)NC(=O)[C@H](CCCCN)NC(=O)[C@H](Cc1c[nH]c2ccccc12)NC(=O)[C@H](CCCCN)NC(=O)[C@H](CCSC)NC(=O)[C@H](CCCCN)NC(=O)[C@H](CCCNC(=N)N)NC(=O)[C@H](CC(N)=O)NC(=O)[C@H](CCC(N)=O)NC(=O)[C@H](Cc1ccccc1)NC(=O)[C@H](Cc1c[nH]c2ccccc12)NC(=O)[C@@H](NC(=O)[C@H](CCCCN)NC(=O)[C@@H](NC(=O)[C@H](CCC(N)=O)NC(=O)[C@@H](N)CCCNC(=N)N)[C@@H](C)CC)[C@@H](C)CC)C(=O)NCC(=O)N[C@@H](CC(N)=O)C(=O)N[C@@H](CO)C(=O)N[C@@H](Cc1ccc(O)cc1)C(=O)N[C@@H](Cc1ccccc1)C(=O)N[C@@H](CCCCN)C(=O)O [Antp R11K-TPR] (H-RQIKIWFQNRKMKWKKKAYARIGNSYFK-OH; N-terminus and C-terminus assumed) | 104.39 | 158.09 | effect similar to that of the wild-type protein | stronger than that of the wild-type peptide

From US8546320B2, “Hsp9O-targeted anti-cancer chimeric peptide” (Kyoto University, priority 2008, dated 2013)
